Literature values in US20210324031A1, “COMPOUNDS, COMPOSITIONS, METHODS, AND USES FOR TREATING LEPTIN RESISTANCE, OBESITY, DIABETES MELLITUS AND METABOLIC SYNDROME” (priority 2019, published 2021).
Where a SMILES comes first, the peptide text is derived from it. [ ]: non-standard residue; d: D form. The star is where a group is joined. Dolaproine = CO[C@@H]([C@@H]1CCCN1)[C@@H](C)C(=O)O; Dil = CC[C@H](C)[C@H](NC)[C@@H](CC(=O)O)OC; X1 = C[C@@H](N*)[C@@H](O)c1ccccc1; NMeV = CN[C@H](C(=O)O)C(C)C

Experiments:
[1] = tested on: CD30+ ALCL type tumor Karpas 299
[2] = Human cancer clinical trials

In the case of `CC[C@H](C)[C@@H]([C@@H](CC(=O)N1CCC[C@H]1[C@H](OC)[C@@H](C)C(=O)N[C@H](C)[C@@H](O)c1ccccc1)OC)N(C)C(=O)[C@@H](NC(=O)[C@@H](NC)C(C)C)C(C)C` [MMAE, monomethyl auristatin E] (H-[NMeV]V[Dil][Dolaproine]-X1), the “control of tumor growth” value ([1]; ADC format, conjugated to an anti-CD30 antibody, drug to antibody ratio 2:1, MMAE dose 10 times lower than the free drug) is given as “completely control tumor growth”, the “halt of tumor growth” value ([1]; free drug at maximal tolerated dose 0.3 mg/kg, compared with saline) is given as “only slightly better than saline” and the maximal tolerated dose ([1]; free drug, mice with human xenografted tumors) is given as 0.3 mg/kg.

For `NS(=O)(=O)OC[C@H]1C[C@H](n2ccc3c(N[C@@H]4CCc5ccccc54)ncnc32)C[C@H]1O` (stereo in doubt) [MLN4924, ((1R,2R,4S)-4-(4-(((R)-2,3-dihydro-1H-inden-1-yl)amino)-7H-pyrrolo[2,3-d]pyrimidin-7-yl)-2-hydroxycyclopentyl)methyl sulfamate], the “toxicity in clinical trials” value [2] is listed as “toxic”.
